The source of these data is ChEMBL document CHEMBL1909046, “DrugMatrix in vitro pharmacology data”.

The nature of experiment [1]: DRUGMATRIX: beta-Lactamase enzyme inhibition (substrate: Nitrocefin). Details: species or system Bacillus cereus. The conditions noted are these: Not Active = under 50% inhibition at 10 µM.
Experiment [2] has as its target T1, Cholecystokinin receptor type A (Homo sapiens, UniProt P32238). Also: in other assays of this panel Not Active means under 50% inhibition at 10 µM.
T1 sequence (P32238 whole entry): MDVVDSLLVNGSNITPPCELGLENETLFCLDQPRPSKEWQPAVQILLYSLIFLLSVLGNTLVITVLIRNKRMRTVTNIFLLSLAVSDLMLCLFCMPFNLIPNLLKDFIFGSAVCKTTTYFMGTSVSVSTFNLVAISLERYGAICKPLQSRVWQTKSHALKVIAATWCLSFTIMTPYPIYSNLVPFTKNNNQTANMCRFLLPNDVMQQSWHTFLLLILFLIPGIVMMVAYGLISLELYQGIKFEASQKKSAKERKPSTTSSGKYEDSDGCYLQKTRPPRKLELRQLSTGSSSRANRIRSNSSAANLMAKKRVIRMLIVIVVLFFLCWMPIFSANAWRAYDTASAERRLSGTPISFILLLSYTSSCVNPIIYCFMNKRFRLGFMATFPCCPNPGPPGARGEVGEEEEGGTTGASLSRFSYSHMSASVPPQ
Type of experiment: cell membranes, Membrane. Particulars: 1321-n1.

Another experiment addresses Melanocortin receptor 5 (Homo sapiens, UniProt P33032). In kind it is cell membranes, HEK293, Membrane.
Experiment [3] can be described thus: DRUGMATRIX: ATPase, Na+/K+ enzyme inhibition (substrate: ATP). In kind it is tissue-based, Sus scrofa, Heart. Particulars: Not Active = under 50% inhibition at 10 µM.
Experiment [4] can be described thus: DRUGMATRIX: Sodium/nucleoside co-transporter radioligand binding (ligand: nitrobenzylthioinosine). In kind it is cell membranes, Cavia porcellus, Dunkin-Hartley, Cerebral cortex, Membrane. The conditions noted are these: Not Active = under 50% inhibition at 10 µM.
In experiment [5] the target is Sodium-dependent dopamine transporter (Homo sapiens, UniProt Q01959). Put plainly: DRUGMATRIX: Dopamine Transporter radioligand binding (ligand: [125I] RTI-55). In kind it is cell membranes, CHO-K1, Membrane. Particulars: Not Active = under 50% inhibition at 10 µM.
Chain of Sodium-dependent dopamine transporter (Q01959 whole entry): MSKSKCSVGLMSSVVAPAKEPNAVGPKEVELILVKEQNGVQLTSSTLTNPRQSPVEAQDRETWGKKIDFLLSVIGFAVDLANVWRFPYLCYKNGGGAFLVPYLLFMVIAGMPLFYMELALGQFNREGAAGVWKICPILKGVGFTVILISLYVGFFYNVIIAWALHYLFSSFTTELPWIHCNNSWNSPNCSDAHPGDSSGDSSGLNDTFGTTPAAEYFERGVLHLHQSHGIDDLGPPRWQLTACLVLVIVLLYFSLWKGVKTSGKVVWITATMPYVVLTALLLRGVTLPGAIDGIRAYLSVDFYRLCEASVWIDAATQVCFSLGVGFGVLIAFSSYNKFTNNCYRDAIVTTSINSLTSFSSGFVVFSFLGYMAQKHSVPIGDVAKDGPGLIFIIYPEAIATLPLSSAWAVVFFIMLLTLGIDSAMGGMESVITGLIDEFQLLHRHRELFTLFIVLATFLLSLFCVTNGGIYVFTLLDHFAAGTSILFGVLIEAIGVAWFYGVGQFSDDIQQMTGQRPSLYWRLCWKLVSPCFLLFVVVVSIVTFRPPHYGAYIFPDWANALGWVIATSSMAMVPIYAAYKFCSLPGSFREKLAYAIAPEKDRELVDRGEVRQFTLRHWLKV

Chain of Melanocortin receptor 5 (P33032 whole entry): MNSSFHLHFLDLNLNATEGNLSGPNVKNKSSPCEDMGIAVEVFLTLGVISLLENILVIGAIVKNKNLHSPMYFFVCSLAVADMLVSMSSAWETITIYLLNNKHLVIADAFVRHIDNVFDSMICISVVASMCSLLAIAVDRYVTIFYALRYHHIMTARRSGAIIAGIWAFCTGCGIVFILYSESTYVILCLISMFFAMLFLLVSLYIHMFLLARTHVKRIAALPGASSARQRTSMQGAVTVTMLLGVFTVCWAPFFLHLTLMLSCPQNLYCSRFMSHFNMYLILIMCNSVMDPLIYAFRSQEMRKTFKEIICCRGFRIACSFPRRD

With `CC[C@H](C)[C@@H](CO[C@@H](Cc1ccccc1)C(=O)N[C@@H](CCS(C)(=O)=O)C(=O)OC(C)C)NC[C@@H](N)CS`, the IC50 (as a rule, the concentration that gives 50% inhibition) in experiment [1] was “Not Active”; in experiment [2], “Not Active”; on Melanocortin receptor 5 (read-out: IC50) it was 0.122 µM; in experiment [3], “Not Active”; in experiment [4], “Not Active”; in experiment [5] (cho-k1), “Not Active”. Also, the inhibition constant (Ki) (in general, a measure of affinity in units of concentration, obtained from inhibition or displacement) in experiment [1] was “Not Active”; on Melanocortin receptor 5 (read-out: Ki) it was 0.114 µM; in experiment [3], “Not Active”; in experiment [4], “Not Active”.

For `Nc1nc(N)c2nc(-c3ccccc3)c(N)nc2n1`, the IC50 result (in experiment [1]; in experiment [2]; at Melanocortin receptor 5 (hek293); in experiment [3]; in experiment [4]; in experiment [5] (cho-k1)) was “Not Active” throughout. The inhibition constant Ki entry in experiment [1], in experiment [3] and in experiment [4] was “Not Active” each time.

On to `CCN(CC)C(=S)SSC(=S)N(CC)CC`, for which the half-maximal inhibitory concentration (IC50) result in experiment [1] is “Not Active”; in experiment [2] it was “Not Active”; against Melanocortin receptor 5 (hek293), “Not Active”; in experiment [3], “Not Active”; in experiment [4] (read-out: IC50), 16.9 µM; in experiment [5] (read-out: IC50), 4.64 µM. Further, the Ki result in experiment [1] is “Not Active”; in experiment [3], “Not Active”; in experiment [4] (read-out: Ki), 5.79 µM; in experiment [5] (read-out: Ki), 3.68 µM.

As for `CN(C)CCC=C1c2ccccc2COc2ccccc21` [DOXEPIN], the IC50 result on Melanocortin receptor 5 (hek293) is given as “Not Active”.

With `O=C(c1ccccc1)c1ccc2n1CCC2C(=O)O` (stereo not drawn) [KETOROLAC], the concentration for half-maximal inhibition (IC50) entry (in experiment [1]; in experiment [2]; on Melanocortin receptor 5 (hek293); in experiment [3]; in experiment [4]; in experiment [5] (cho-k1)) was “Not Active” each time. The inhibition constant Ki result in experiment [1], in experiment [3] and in experiment [4] was “Not Active” in each case.

On to `CCOC(=O)C1=C(C)NC(C)=C(C(=O)OCC)C1c1ccccc1/C=C/C(=O)OC(C)(C)C` [LACIDIPINE], for which the IC50 result (in experiment [1]; in experiment [2]; on Melanocortin receptor 5 (hek293); in experiment [3]; in experiment [4]; in experiment [5] (cho-k1)) was “Not Active” in each case. For the same compound, the Ki entry in experiment [1], in experiment [3] and in experiment [4] was “Not Active” throughout.

`CC(O)C(=O)O` (stereo not drawn) [LACTIC ACID]: the IC50 result (in experiment [1]; in experiment [2]; at Melanocortin receptor 5 (hek293); in experiment [3]; in experiment [4]; in experiment [5] (cho-k1)) was “Not Active” in each case. Besides, the Ki result in experiment [1], in experiment [3] and in experiment [4] was “Not Active” each time.

On to `CC(C)(C)NC[C@H](O)COc1cccc2c1CCCC2=O` [LEVOBUNOLOL], for which the 50% inhibitory concentration (IC50) result (in experiment [1]; in experiment [2]; at Melanocortin receptor 5 (hek293); in experiment [3]; in experiment [4]; in experiment [5] (cho-k1)) was “Not Active” each time. Also, the Ki result in experiment [1], in experiment [3] and in experiment [4] was “Not Active” throughout.

As for `CO[C@@H]1[C@@H](OC)[C@H](C)[C@@](O)(CC(=O)O)O[C@H]1[C@H](C)[C@H]1O[C@@]2(CC[C@@](C)([C@H]3CC[C@@](C)([C@@H]4O[C@@H]([C@H]5O[C@](C)(O)[C@H](C)C[C@@H]5C)C[C@@H]4O[C@@H]4C[C@H](OC)[C@@H](OC)[C@H](C)O4)O3)O2)C[C@H](O)[C@H]1C.N` [MADURAMICIN], the half-inhibitory concentration (IC50) result (in experiment [1]; in experiment [2]; at Melanocortin receptor 5 (hek293); in experiment [3]; in experiment [4]; in experiment [5] (cho-k1)) was “Not Active” each time. Also, the inhibition constant Ki entry in experiment [1], in experiment [3] and in experiment [4] was “Not Active” each time.

As to `OC[C@@H](O)[C@@H](O)[C@H](O)[C@H](O)CO` [MANNITOL], the concentration for half-maximal inhibition (IC50) result (in experiment [1]; in experiment [2]; on Melanocortin receptor 5 (hek293); in experiment [3]; in experiment [4]; in experiment [5] (cho-k1)) was “Not Active” each time. The inhibitory constant (Ki) result in experiment [1], in experiment [3] and in experiment [4] was “Not Active” throughout.

As to `CNCCCC12CCC(c3ccccc31)c1ccccc12` [MAPROTILINE], the half-maximal inhibitory concentration (IC50) entry (in experiment [2]; at Melanocortin receptor 5 (hek293)) was “Not Active” throughout.

In the case of `COC(=O)Nc1nc2ccc(C(=O)c3ccccc3)cc2[nH]1` [MEBENDAZOLE], the IC50 entry (in experiment [1]; in experiment [2]; at Melanocortin receptor 5 (hek293); in experiment [3]; in experiment [4]; in experiment [5] (cho-k1)) was “Not Active” in each case. In addition, the Ki result in experiment [1], in experiment [3] and in experiment [4] was “Not Active” in each case.

`Cc1ccc(Cl)c(Nc2ccccc2C(=O)O)c1Cl` [MECLOFENAMIC ACID]: the IC50 result (in experiment [1]; in experiment [2]; on Melanocortin receptor 5 (hek293); in experiment [3]; in experiment [4]; in experiment [5] (cho-k1)) was “Not Active” each time. In addition, the Ki entry in experiment [1], in experiment [3] and in experiment [4] was “Not Active” in each case.

On to `CC(=O)O[C@]1(C(C)=O)CC[C@H]2[C@@H]3C[C@H](C)C4=CC(=O)CC[C@]4(C)[C@H]3CC[C@@]21C` [MEDROXYPROGESTERONE ACETATE], for which the IC50 result (in experiment [1]; in experiment [2]; on Melanocortin receptor 5 (hek293); in experiment [3]; in experiment [4]; in experiment [5] (cho-k1)) was “Not Active” in each case. The inhibition constant Ki result in experiment [1], in experiment [3] and in experiment [4] was “Not Active” throughout.

For `Cc1cnc(NC(=O)C2=C(O)c3ccccc3S(=O)(=O)N2C)s1` [MELOXICAM], the half-inhibitory concentration (IC50) result (in experiment [1]; in experiment [2]; at Melanocortin receptor 5 (hek293); in experiment [3]; in experiment [4]; in experiment [5] (cho-k1)) was “Not Active” each time. Moreover, the inhibition constant Ki result in experiment [1], in experiment [3] and in experiment [4] was “Not Active” each time.

With `CN1C[C@H](CNC(=O)OCc2ccccc2)C[C@@H]2c3cccc4c3c(cn4C)C[C@H]21` [METERGOLINE], the concentration for half-maximal inhibition (IC50) result (in experiment [1]; in experiment [2]; against Melanocortin receptor 5 (hek293); in experiment [3]; in experiment [4]) was “Not Active” throughout. Besides, the inhibitory constant (Ki) result in experiment [1], in experiment [3] and in experiment [4] was “Not Active” in each case.

Regarding `C[N+]1(C)[C@@H]2C[C@@H](OC(=O)[C@H](CO)c3ccccc3)C[C@H]1[C@@H]1O[C@@H]12.[Br-]` [METHSCOPOLAMINE BROMIDE], the IC50 entry (in experiment [1]; in experiment [2]; against Melanocortin receptor 5 (hek293); in experiment [3]; in experiment [4]; in experiment [5] (cho-k1)) was “Not Active” throughout. Moreover, the Ki entry in experiment [1], in experiment [3] and in experiment [4] was “Not Active” throughout.

Take `CCN(CC)CCNC(=O)c1cc(Cl)c(N)cc1OC` [METOCLOPRAMIDE]: the IC50 entry (in experiment [1]; in experiment [2]; on Melanocortin receptor 5 (hek293); in experiment [3]; in experiment [4]; in experiment [5] (cho-k1)) was “Not Active” each time. The inhibitory constant (Ki) entry in experiment [1], in experiment [3] and in experiment [4] was “Not Active” throughout.

Consider `CC[C@H](C)C(=O)O[C@H]1CCC=C2C=C[C@H](C)[C@H](CC[C@@H]3C[C@@H](O)CC(=O)O3)[C@H]21` [MEVASTATIN], for which the half-maximal inhibitory concentration (IC50) entry (in experiment [1]; in experiment [2]; against Melanocortin receptor 5 (hek293); in experiment [3]; in experiment [4]; in experiment [5] (cho-k1)) was “Not Active” each time. The Ki entry in experiment [1], in experiment [3] and in experiment [4] was “Not Active” in each case.

On to `CC#C[C@]1(O)CC[C@H]2[C@@H]3CCC4=CC(=O)CCC4=C3[C@@H](c3ccc(N(C)C)cc3)C[C@@]21C` [MIFEPRISTONE], for which the IC50 entry (in experiment [1]; in experiment [2]; at Melanocortin receptor 5 (hek293); in experiment [3]; in experiment [4]; in experiment [5] (cho-k1)) was “Not Active” throughout. Also, the Ki entry in experiment [1], in experiment [3] and in experiment [4] was “Not Active” each time.

On to `Cc1[nH]c(=O)c(C#N)cc1-c1ccncc1` [MILRINONE], for which the IC50 entry (in experiment [1]; in experiment [2]; at Melanocortin receptor 5 (hek293); in experiment [3]; in experiment [4]; in experiment [5] (cho-k1)) was “Not Active” in each case. Moreover, the inhibition constant (Ki) entry in experiment [1], in experiment [3] and in experiment [4] was “Not Active” each time.

Consider `Cc1cc2c(s1)Nc1ccccc1N=C2N1CCN(C)CC1` [OLANZAPINE], for which the concentration for half-maximal inhibition (IC50) entry (in experiment [2]; against Melanocortin receptor 5 (hek293); in experiment [5] (cho-k1)) was “Not Active” throughout.
